Test results reported in patent US20100056524A1, “Compound” (priority 2008, published 2010).
Like-named read-outs stand apart in the source and are kept apart here.

Experiments:
JNK1 = molecular target: T1, JNK1 (Homo sapiens, UniProt P45983); experiment: JNK1 protein kinase assay; assay type: biochemical; conditions: for remaining activity at 10 µM: 10 μM compound; for residual kinase activity JNK1: 1 μm compound
T1 construct: All protein kinases were of human origin and encoded full length proteins, unless indicated otherwise; made in house
Description: (§1) All protein kinases were of human origin and encoded full length proteins, unless indicated otherwise. They were either expressed as glutathione S-transferase (GST) fusion proteins in Escherichia Coli or as hexahistidine (His6)-tagged proteins in insect Sf21 cells. GST fusion proteins were purified by affinity chromatography on glutathione-Sepharose, and His6-tagged proteins on nickel/nitriloacetate-agarose. The procedures for expressing some of the protein kinases used herein have been detailed previously.^8,9 The following sections outline the DNA vectors synthesised and the procedures used to express and purifying protein kinases that have not been reported previously.
In order to produce activated forms of Aurora B and Aurora C, insect Sf21 cells were incubated for 1 h with the protein phosphatase inhibitor okadaic acid (50 nM). JNK isoforms were activated with MKK4 and MKK7, MNK2 with p38α MAPkinase; PKBα, PKBβ, with PDK1, and ERK1 with MKK1. To activate CDK2, bacterial pellets expressing cyclin A2 and CDK2 were mixed together, lyse and purified on glutathione Sepharose. The GST-tags were removed by cleavage with PreScission protease and the CDK2-cyclin A2 complex purified by chromatography on SP-Sepharose. It was then activated with CAK1/CDK7 followed by chromatography on nickel-nitrilotriacetate agarose to remove CAK1/CDK7, which binds to this column by virtue of its C-terminal His6 tag. All the other protein kinases were active as expressed.
(§2) All assays (25.5 μl) were carried out at room temperature (21° C.) and were linear with respect to time and enzyme concentration under the conditions used. Assays were performed for 30 min using Multidrop Micro reagent dispensers (Thermo Electron Corporation, Waltham, Mass. 02454, USA) in a 96-well format. The concentration of magnesium acetate in the assays was 10 mM and the [γ-33P] ATP (800 cpm/pmol) was used at 5, 20 or 50 μM as indicated, in order to be at or below the Km for ATP for each enzyme. Protein kinases assayed at 5 μM ATP were: —ERK1, ERK8, PKBα, MARK3, Aurora C. Protein kinases assayed at 20 μM ATP were: —JNK1, PDK1, CHK1, CHK2, CDK2 and Aurora B. Protein kinases assayed at 50 μM ATP were: —MNK2, IKKepsilon and TBK1.
(§3) The assays were initiated with MgATP, stopped by addition of 5 μl of 0.5 M orthophosphoric acid and spotted on to P81 filterplates using a unifilter harvester (PerkinElmer, Boston, Mass. 02118, USA). The IC50 values of inhibitors were determined after carrying out assays at 10 different concentrations of each compound.
(§4) Unless stated otherwise, enzymes were diluted in 50 mM Tris/HCl pH 7.5, 0.1 mM EGTA, 1 mg/ml BSA, 0.1% (v/v) 2-mercaptoethanol and assayed in 50 mM Tris/HCl pH 7.5, 0.1 mM EGTA, 0.1% (v/v) 2-mercaptoethanol.

P38b MAPK = molecular target: T2, P38b MAPK (Homo sapiens, UniProt Q15759); experiment: P38b MAPK protein kinase assay; assay type: biochemical; conditions: for remaining activity at 10 µM: 10 μM compound; for residual kinase activity P38b MAPK: 1 μm compound
T2 construct: All protein kinases were of human origin and encoded full length proteins, unless indicated otherwise; made in house
Description: as §1, §2, §3, §4

S6K1 = molecular target: T3, S6K1 (Homo sapiens, UniProt P23443, T412E); experiment: S6K1 protein kinase assay; assay type: biochemical; conditions: for remaining activity at 10 µM: 10 μM compound; for residual kinase activity S6K1: 1 μm compound
T3 construct: All protein kinases were of human origin and encoded full length proteins, unless indicated otherwise; made in house
Description: as §1, §2, §3, §4

PKA = molecular target: T4, PKA (Homo sapiens, UniProt P17612); experiment: PKA protein kinase assay; assay type: biochemical; conditions: for remaining activity at 10 µM: 10 μM compound; for residual kinase activity PKA: 1 μm compound
T4 construct: All protein kinases were of human origin and encoded full length proteins, unless indicated otherwise; made in house
Description: as §1, §2, §3, §4

MSK1 = molecular target: T5, MSK1 (Homo sapiens, UniProt O75582); experiment: MSK1 protein kinase assay; assay type: biochemical; conditions: for remaining activity at 10 µM: 10 μM compound; for residual kinase activity MSK1: 1 μm compound
T5 construct: All protein kinases were of human origin and encoded full length proteins, unless indicated otherwise; made in house
Description: as §1, §2, §3, §4

MNK1 = molecular target: T6, MNK1 (Homo sapiens, UniProt Q9BUB5); experiment: MNK1 protein kinase assay; assay type: biochemical; conditions: for remaining activity at 10 µM: 10 μM compound; for residual kinase activity MNK1: 1 μm compound
T6 construct: All protein kinases were of human origin and encoded full length proteins, unless indicated otherwise; made in house
Description: as §1, §2, §3, §4

PHK = PHK protein kinase assay; assay type: biochemical, human; conditions: for residual kinase activity: PHK
Description: as §1, §2, §3, §4

CHK2 = molecular target: T7, CHK2 (Homo sapiens, UniProt O96017); experiment: CHK2 protein kinase assay; assay type: biochemical; conditions: for remaining activity at 10 µM: 10 μM compound; for residual kinase activity CHK2: 1 μm compound
T7 construct: The following proteins were expressed in E. coli: —CHK2[5-543]; GST; made in house; host or cells: E. coli
Description: as §1
The following proteins were expressed in E. coli: —CHK2[5-543], cyclin-dependent protein kinase 2 (CDK2), MAP kinase-interacting kinase 2 (MNK2), extra-cellular signal-regulated kinase 1 (ERK1).
as §2, §3, §4

CK2 = CK2 protein kinase assay; assay type: biochemical, human; conditions: for residual kinase activity: CK2
Description: as §1, §2, §3, §4

PIM1 = molecular target: T8, PIM1 (Homo sapiens, UniProt P11309); experiment: PIM1 protein kinase assay; assay type: biochemical; conditions: for remaining activity at 10 µM: 10 μM compound; for residual kinase activity PIM1: 1 μm compound
T8 construct: All protein kinases were of human origin and encoded full length proteins, unless indicated otherwise; made in house
Description: as §1, §2, §3, §4

HIPK2 = molecular target: T9, HIPK2 (Homo sapiens, UniProt Q9H2X6); experiment: HIPK2 protein kinase assay; assay type: biochemical; conditions: for remaining activity at 10 µM: 10 μM compound; for residual kinase activity HIPK2: 1 μm compound
T9 construct: All protein kinases were of human origin and encoded full length proteins, unless indicated otherwise; made in house
Description: as §1, §2, §3, §4

PKBb = PKBb (Homo sapiens, UniProt P31751, S474D); experiment: PKBb protein kinase assay
[1] = read-out: residual kinase activity JNK1
[2] = read-out: residual kinase activity P38b MAPK
[3] = read-out: residual kinase activity S6K1
[4] = read-out: residual kinase activity PKA
[5] = read-out: residual kinase activity MSK1
[6] = read-out: residual kinase activity MNK1
[7] = read-out: residual kinase activity CHK2
[8] = read-out: residual kinase activity PIM1
[9] = read-out: residual kinase activity HIPK2
[10] = read-out: residual kinase activity PKBb
[11] = read-out: residual kinase activity

T5 sequence (O75582 whole entry): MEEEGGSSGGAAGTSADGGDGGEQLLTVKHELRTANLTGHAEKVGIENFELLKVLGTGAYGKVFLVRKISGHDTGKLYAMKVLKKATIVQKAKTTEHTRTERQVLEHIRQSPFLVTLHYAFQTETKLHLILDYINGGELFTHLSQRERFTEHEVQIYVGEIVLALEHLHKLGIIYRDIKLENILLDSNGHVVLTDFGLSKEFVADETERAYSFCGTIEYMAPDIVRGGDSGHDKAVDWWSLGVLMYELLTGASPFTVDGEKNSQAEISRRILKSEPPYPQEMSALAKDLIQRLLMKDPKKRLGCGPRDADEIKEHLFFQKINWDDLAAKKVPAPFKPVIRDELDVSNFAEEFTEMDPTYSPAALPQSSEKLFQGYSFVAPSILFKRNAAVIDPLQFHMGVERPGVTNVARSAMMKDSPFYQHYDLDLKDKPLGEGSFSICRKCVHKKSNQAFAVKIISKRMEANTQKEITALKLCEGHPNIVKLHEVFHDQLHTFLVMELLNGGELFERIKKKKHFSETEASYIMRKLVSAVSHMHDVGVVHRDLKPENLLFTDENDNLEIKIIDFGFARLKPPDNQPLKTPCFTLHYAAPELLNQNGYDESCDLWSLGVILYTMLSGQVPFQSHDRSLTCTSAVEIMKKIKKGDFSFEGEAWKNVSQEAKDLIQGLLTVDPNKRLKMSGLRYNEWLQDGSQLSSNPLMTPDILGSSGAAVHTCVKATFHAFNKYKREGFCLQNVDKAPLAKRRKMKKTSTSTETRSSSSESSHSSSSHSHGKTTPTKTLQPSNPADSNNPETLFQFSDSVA
T8 sequence (P11309 whole entry): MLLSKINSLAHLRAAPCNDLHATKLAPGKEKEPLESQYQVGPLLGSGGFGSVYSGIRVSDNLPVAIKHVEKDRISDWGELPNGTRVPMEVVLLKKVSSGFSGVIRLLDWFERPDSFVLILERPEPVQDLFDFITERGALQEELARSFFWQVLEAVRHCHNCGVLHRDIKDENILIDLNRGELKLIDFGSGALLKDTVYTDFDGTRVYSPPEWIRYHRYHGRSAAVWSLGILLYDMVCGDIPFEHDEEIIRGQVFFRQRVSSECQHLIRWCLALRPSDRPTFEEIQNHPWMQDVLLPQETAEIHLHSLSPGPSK
T7 sequence (O96017 5-543): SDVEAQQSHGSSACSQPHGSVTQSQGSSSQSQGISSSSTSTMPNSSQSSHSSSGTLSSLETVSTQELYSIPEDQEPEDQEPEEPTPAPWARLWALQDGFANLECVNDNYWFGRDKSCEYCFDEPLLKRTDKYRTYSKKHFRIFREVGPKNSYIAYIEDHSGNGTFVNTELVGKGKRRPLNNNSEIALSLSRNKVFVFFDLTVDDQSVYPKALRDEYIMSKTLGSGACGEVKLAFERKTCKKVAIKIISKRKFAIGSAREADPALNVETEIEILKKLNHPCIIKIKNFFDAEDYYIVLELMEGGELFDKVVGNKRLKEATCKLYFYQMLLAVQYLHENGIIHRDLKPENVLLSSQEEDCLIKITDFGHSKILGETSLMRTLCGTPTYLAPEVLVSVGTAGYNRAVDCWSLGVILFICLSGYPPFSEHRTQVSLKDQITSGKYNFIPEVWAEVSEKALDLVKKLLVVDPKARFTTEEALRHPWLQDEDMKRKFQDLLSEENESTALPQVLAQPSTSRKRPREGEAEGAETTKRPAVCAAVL
T1 sequence (P45983 1-384 isoform P45983-2): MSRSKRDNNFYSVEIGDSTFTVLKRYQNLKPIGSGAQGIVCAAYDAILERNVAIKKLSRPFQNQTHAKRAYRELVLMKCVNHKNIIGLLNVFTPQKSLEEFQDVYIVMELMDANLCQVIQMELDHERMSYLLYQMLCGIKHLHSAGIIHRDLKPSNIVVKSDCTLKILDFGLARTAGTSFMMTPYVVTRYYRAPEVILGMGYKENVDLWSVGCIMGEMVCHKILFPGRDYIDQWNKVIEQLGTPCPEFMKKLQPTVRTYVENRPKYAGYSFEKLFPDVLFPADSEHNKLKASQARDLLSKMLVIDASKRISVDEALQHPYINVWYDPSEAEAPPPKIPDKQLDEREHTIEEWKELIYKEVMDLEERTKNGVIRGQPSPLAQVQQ
PKBb, sequence (P31751 120-481 S474D): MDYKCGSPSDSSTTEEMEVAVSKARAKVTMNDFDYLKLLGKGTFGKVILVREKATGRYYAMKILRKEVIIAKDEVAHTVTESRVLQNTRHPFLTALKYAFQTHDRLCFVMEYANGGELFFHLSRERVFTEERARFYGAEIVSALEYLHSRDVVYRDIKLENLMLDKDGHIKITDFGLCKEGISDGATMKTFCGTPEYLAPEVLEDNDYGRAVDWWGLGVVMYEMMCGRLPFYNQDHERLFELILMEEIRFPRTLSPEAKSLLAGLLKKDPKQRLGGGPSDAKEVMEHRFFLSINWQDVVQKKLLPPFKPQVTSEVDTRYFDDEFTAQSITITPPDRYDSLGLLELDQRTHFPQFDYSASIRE
T3 sequence (P23443 1-421 T412E limits assumed): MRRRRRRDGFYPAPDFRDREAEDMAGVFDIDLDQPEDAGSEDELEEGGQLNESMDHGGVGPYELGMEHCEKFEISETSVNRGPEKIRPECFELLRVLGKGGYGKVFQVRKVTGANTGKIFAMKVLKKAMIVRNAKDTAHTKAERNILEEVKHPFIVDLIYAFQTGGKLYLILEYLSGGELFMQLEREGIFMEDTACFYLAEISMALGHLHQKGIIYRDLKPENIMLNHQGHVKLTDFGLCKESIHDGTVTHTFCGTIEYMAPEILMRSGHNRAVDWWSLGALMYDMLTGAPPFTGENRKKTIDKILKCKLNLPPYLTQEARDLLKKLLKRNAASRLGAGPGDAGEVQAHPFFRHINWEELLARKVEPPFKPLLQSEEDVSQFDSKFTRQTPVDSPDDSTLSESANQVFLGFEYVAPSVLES
T9 sequence (Q9H2X6 165-564 limits assumed): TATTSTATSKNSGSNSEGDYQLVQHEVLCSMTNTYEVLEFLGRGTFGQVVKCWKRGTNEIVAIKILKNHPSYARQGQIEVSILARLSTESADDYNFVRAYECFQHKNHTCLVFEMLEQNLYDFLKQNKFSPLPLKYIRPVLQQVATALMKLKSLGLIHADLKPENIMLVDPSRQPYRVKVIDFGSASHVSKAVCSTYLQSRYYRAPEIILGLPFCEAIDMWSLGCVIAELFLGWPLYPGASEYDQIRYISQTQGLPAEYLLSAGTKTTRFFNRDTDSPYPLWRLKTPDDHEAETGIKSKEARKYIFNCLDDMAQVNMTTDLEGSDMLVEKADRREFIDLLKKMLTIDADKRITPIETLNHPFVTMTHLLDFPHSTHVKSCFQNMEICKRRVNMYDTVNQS
T2 sequence (Q15759 whole entry): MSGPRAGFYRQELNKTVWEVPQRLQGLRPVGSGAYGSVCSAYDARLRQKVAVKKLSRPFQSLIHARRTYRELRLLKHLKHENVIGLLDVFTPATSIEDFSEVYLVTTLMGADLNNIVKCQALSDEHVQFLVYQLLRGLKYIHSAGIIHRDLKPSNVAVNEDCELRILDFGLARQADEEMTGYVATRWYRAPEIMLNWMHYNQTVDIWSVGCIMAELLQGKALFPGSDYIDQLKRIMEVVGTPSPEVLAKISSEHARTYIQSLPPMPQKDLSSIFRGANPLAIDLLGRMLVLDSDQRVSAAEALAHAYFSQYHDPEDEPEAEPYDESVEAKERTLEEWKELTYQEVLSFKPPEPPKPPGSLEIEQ
T6 sequence (Q9BUB5 whole entry): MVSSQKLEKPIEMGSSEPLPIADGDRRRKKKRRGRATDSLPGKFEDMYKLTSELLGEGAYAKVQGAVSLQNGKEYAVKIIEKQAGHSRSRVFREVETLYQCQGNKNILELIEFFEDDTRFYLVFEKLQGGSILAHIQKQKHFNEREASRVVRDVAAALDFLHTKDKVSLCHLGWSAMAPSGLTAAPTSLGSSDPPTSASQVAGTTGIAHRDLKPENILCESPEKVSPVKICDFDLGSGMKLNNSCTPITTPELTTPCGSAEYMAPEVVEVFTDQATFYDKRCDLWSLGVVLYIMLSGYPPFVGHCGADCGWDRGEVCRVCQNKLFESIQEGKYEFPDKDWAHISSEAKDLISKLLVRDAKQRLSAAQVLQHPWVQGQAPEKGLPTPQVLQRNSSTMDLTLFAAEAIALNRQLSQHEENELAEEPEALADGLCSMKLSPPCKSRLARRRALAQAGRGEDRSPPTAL

## O=C(NCCCNc1nc(Nc2cccc(F)c2)ncc1Br)C1CCC1 [Compound A, cyclobutanecarboxylic acid {3-[5-bromo-2-(3-fluoro-phenylamino)-pyrimidin-4-ylamino]-propyl}-amide, reference compound]
JNK1; [1]
  remaining activity at 10 µM: 9%
JNK1
  residual kinase activity JNK1: 46%
P38b MAPK; [2]
  remaining activity at 10 µM: 80%
P38b MAPK
  residual kinase activity P38b MAPK: 96%
S6K1; [3]
  remaining activity at 10 µM: 13%
S6K1
  residual kinase activity S6K1: 49%
PKA; [4]
  remaining activity at 10 µM: 22%
PKA
  residual kinase activity PKA: 75%
MSK1; [5]
  remaining activity at 10 µM: 24%
MSK1
  residual kinase activity MSK1: 62%
MNK1; [6]
  remaining activity at 10 µM: 15%
MNK1
  residual kinase activity MNK1: 49%
PHK; 10 μM compound
  residual kinase activity PHK: 0%
PHK; 1 μm compound
  residual kinase activity PHK: 7%
CHK2; [7]
  remaining activity at 10 µM: 12%
CHK2
  residual kinase activity CHK2: 13%
CK2; 10 μM compound
  residual kinase activity CK2: 44%
CK2; 1 μm compound
  residual kinase activity CK2: 77%
PIM1; [8]
  remaining activity at 10 µM: 50%
PIM1
  residual kinase activity PIM1: 52%
HIPK2; [9]
  remaining activity at 10 µM: 12%
HIPK2
  residual kinase activity HIPK2: 58%
PKBb; [10]
  remaining activity at 1 µM: 91%
  remaining activity at 10 µM: 93%

## O=C(NCCCNc1nc(Nc2cccc(F)c2)ncc1C1CC1)C1CCC1 [Example 23, Cyclobutanecarboxylic acid {3-[5-cyclopropyl-2-(3-fluoro-phenylamino)-pyrimidin-4-ylamino]-propyl}-amide]
JNK1; [1]
  remaining activity at 10 µM: 73%
JNK1
  residual kinase activity JNK1: 91%
JNK1; JNK1, 1 μM compound, 20 μM ATP, read-out: residual kinase activity
  remaining activity at 1 µM: 91%
JNK1; JNK1, 20 μM ATP, read-out: residual kinase activity
  remaining activity at 10 µM: 73%
P38b MAPK; [2]
  remaining activity at 10 µM: 92%
P38b MAPK
  residual kinase activity P38b MAPK: 86%
P38b MAPK; P38b MAPK, 1 μM compound, read-out: residual kinase activity
  remaining activity at 1 µM: 86%
P38b MAPK; P38b MAPK, read-out: residual kinase activity
  remaining activity at 10 µM: 92%
S6K1; [3]
  remaining activity at 10 µM: 30%
S6K1
  residual kinase activity S6K1: 38%
S6K1; S6K1, 1 μM compound, read-out: residual kinase activity
  remaining activity at 1 µM: 38%
S6K1; S6K1, read-out: residual kinase activity
  remaining activity at 10 µM: 30%
PKA; [4]
  remaining activity at 10 µM: 73%
PKA
  residual kinase activity PKA: 80%
PKA; PKA, 1 μM compound, read-out: residual kinase activity
  remaining activity at 1 µM: 80%
PKA; PKA, read-out: residual kinase activity
  remaining activity at 10 µM: 73%
MSK1; [5]
  remaining activity at 10 µM: 34%
MSK1
  residual kinase activity MSK1: 74%
MSK1; MSK1, 1 μM compound, read-out: residual kinase activity
  remaining activity at 1 µM: 74%
MSK1; MSK1, read-out: residual kinase activity
  remaining activity at 10 µM: 34%
MNK1; [6]
  remaining activity at 10 µM: 62%
MNK1
  residual kinase activity MNK1: 85%
MNK1; MNK1, 1 μM compound, read-out: residual kinase activity
  remaining activity at 1 µM: 85%
MNK1; MNK1, read-out: residual kinase activity
  remaining activity at 10 µM: 62%
PHK; 10 μM compound
  residual kinase activity PHK: 3%
  residual kinase activity: 3%
PHK; 1 μm compound
  residual kinase activity PHK: 28%
PHK; 1 μM compound
  residual kinase activity: 28%
CHK2; [7]
  remaining activity at 10 µM: 11%
CHK2
  residual kinase activity CHK2: 50%
CHK2; CHK2, 1 μM compound, 20 μM ATP, read-out: residual kinase activity
  remaining activity at 1 µM: 50%
CHK2; CHK2, 20 μM ATP, read-out: residual kinase activity
  remaining activity at 10 µM: 11%
CK2; 10 μM compound
  residual kinase activity CK2: 107%
  residual kinase activity: 107%
CK2; 1 μm compound
  residual kinase activity CK2: 111%
CK2; 1 μM compound
  residual kinase activity: 111%
PIM1; [8]
  remaining activity at 10 µM: 46%
PIM1
  residual kinase activity PIM1: 78%
PIM1; PIM1, 1 μM compound, read-out: residual kinase activity
  remaining activity at 1 µM: 78%
PIM1; PIM1, read-out: residual kinase activity
  remaining activity at 10 µM: 46%
HIPK2; [9]
  remaining activity at 10 µM: 26%
HIPK2
  residual kinase activity HIPK2: 59%
HIPK2; HIPK2, 1 μM compound, read-out: residual kinase activity
  remaining activity at 1 µM: 59%
HIPK2; HIPK2, read-out: residual kinase activity
  remaining activity at 10 µM: 26%
PKBb; [11]
  remaining activity at 1 µM: 106%
  remaining activity at 10 µM: 114%
PKBb; [10]
  remaining activity at 1 µM: 106%
  remaining activity at 10 µM: 114%
